# According to US11291663B2, “Methods of treating cancer with farnesyltransferase inhibitors” (Kura Oncology, Inc., priority 2017, dated 2022):
# How the values were obtained:
# Assay type in all cases: in vivo, human
# relapsed/refractory AML = experiment: Study AMLCG 1999, AraC based chemotherapy by CXCR4/CXCR2 expression ratio; settings: relapsed/refractory AML subjects
# Text: FIG. 11B. Progression free survival (PFS) probabilities over time (days) for relapsed/refractory AML subjects in study AMLCG 1999 receiving AraC based chemotherapy with relative CXCR4/CXCR2 expression ratios.
# [1] = system: relapsed and refractory AML; experiment: Phase 2 study INT-17 of tipifarnib
# Description: (§1) Clinical studies with tipifarnib were performed in newly diagnosed elderly patients with poor risk AML (CTEP-20, Phase 2) and relapsed and refractory AML (INT-17, Phase 2). Patient selection in these studies was not based on genetic markers. Anecdotal evidence of tipifarnib single agent activity was reported. […] Median OS in the overall study was 107 days for the Tipifarnib group and 109 days for the BSC group in AML301.
# FIGS. 6A and 6B show graphs illustrating results from a tipifarnib trial with relapsed or refractory AML subjects (INT-17 R/R AML). […] The bone marrow of refractory AML subjects was generally found to express low levels of CXCL12. A small subset of subjects (˜15%) presented high levels of CXCR4, bone marrow homing of tumor cells and sensitivity to tipifarnib. FIG. 6A illustrates relative counts of blood blasts in relapsed or refractory AML patients stratified based on CXCR4 expression levels. […] FIG. 6B illustrates PFS probabilities for relapsed or refractory AML subjects stratified based on CXCR4 expression levels. AML subjects overexpressing CXCR4 (N=8; median PFS=143 days) had better clinical outcomes than AML subjects with relatively lower levels of CXCR4 expression (N=49; median PFS=29 days).
# CXCR4/CXCR2 ratio data were available for 57 subjects who experienced an overall survival of 87 days. […]
# relapsed/refractory PTCL = experiment: Tipifarnib in relapsed/refractory PTCL patients with available GEP; settings: of 13 highly advanced relapsed/refractory PTCL patients with available GEP
# Text: (§2) CXCL12 expression alone or as a ratio of the expression to its receptor CXCR4 predicted complete response to tipifarnib treatment (p=0.08, p=0.001) (FIG. 20A). CXCL12 and the CXCL12/CXCR4 ratio also were predictive of 2 partial responses (PR) observed in 13 highly advanced relapsed/refractory PTCL patients with available GEP (p=0.009, p=0.0007) (FIG. 20B). Four objective responses and 1 tumor lysis syndrome were reported in 17 tipifarnib-treated CMML subjects with available pre-treatment BM gene expression data (FIG. 20C). CXCL12 expression (p=0.07) and the CXCL12/CXCR4 ratio (p=0.03) were predictive of those events (FIG. 20C). Only 3 CRs were reported in 58 patients with available BM gene expression data in study INT-17.
# relapsed/refractory CMML = experiment: Tipifarnib-treated CMML subjects (study TIP-004); settings: of 17 CMML subjects with available pre-treatment BM gene expression data
# Text: FIG. 10B. Progression free survival (PFS) probabilities over time (days) for relapsed/refractory CMML subjects in study TIP-004 receiving tipifarnib with relative CXCR4/CXCR2 expression ratios. CMML patients having higher CXCR4/CXCR2 expression ratios responded better to tipifarnib treatment than those having lower CXCR4/CXCR2 expression ratios.
# as §2
# [2] = system: elderly patients with newly diagnosed, de novo, or secondary AML; experiment: Ph3 study AML301, tipifarnib versus BSC
# Description: as §1
# AML patients with low percentage of circulating blood blasts (<1 and <10%) and high percentage of bone marrow blasts (>40%) receive clinical benefit from tipifarnib treatment in terms of progression free survival (PFS, CTEP20) or survival (AML301). […] AML301 patients N=82 (18% of study size), HR=0.58, 109 (BSC) vs 201 (tipifarnib) days, P=0.019.
# FIGS. 3A-H show results from a clinical tipifarnib trial for subsets of elderly or frail AML patients (AML-301) with varying degrees of neutropenia. […] FIGS. 3B-3F show survival probabilities in AML patient subsets with WBCs>2.1×10^9 cells/L and ANC<1.2×10^9 cells/L (FIG. 3B), ANC<1.0 (FIG. 3C), ANC<0.8 (FIG. 3D), ANC<0.6 (FIG. 3E) and ANC<0.4 (FIG. 3F).
# [3] = system: newly diagnosed elderly patients with poor risk AML; experiment: Phase 2 study CTEP-20 of tipifarnib
# Description: as §1
# FIG. 7. (A) PFS probabilities of previously untreated elderly or unfit AML subjects with a high CXCR4/CXCR2 ratio versus the rest of the patients enrolled in study CTEP-20. Outcome and expression data are available for 34 study subjects. Median survival of subjects with a bone marrow CXCR4/CXCR2 expression ratio in the upper quartile was 406 days versus 67 days in quartiles 1st-3rd, HR=0.44, p=0.09. Median overall PFS was 84 days. (B) Survival probabilities of previously untreated elderly or unfit AML subjects with a high CXCR4/CXCR2 ratio versus the rest of the patients in study CTEP-20. Median survival of subjects with a bone marrow CXCR4/CXCR2 expression ratio in the upper quartile was 728 days versus 179 days in quartiles 1st-3rd, HR=0.26, p=0.07. Median overall survival was 233 days.
Compound,PFS response of patients with higher versus lower CXCR4/CXCR2 expression ratios (relapsed/refractory AML),"CRs, number of patients ([1]; of 58 patients with available BM gene expression data)","HR, 5th quintile of CXCR4/CXCR2 ratio versus rest of the subjects ([1]; p=0.04)","partial responses (PR), number of patients (relapsed/refractory PTCL)","tumor lysis syndrome, number of subjects (relapsed/refractory CMML)","hazard ratio, tipifarnib versus reference therapy ([2]; ANC/WBC<0.3 and marrow blasts >60%, N=110, P=0.08)","hazard ratio, tipifarnib versus BSC ([2]; ANC/WBC<0.4, WBC>2, platelets >20, N=135, P=0.046)",survival probability versus Best Supportive Care ([2]; no marrow homing subset),"HR, tipifarnib versus BSC ([2]; subset with bone marrow blasts >40% and peripheral blood blasts <10%, N=82, P=0.019)",Median survival (PFS panel A) ([3]; CXCR4/CXCR2 expression ratio quartiles 1st-3rd) [days],"best responses of progression of disease (PD), number of patients ([3]; of 34 pts with available BM gene expression data)","HR for survival, upper quartile versus quartiles 1st-3rd of CXCR4/CXCR2 ratio ([3]; p=0.07)","HR for PFS, upper quartile versus quartiles 1st-3rd of CXCR4/CXCR2 ratio ([3]; p=0.09)"
Nc1ccn([C@@H]2O[C@H](CO)[C@@H](O)[C@@H]2O)c(=O)n1 [AraC],no differently,,,,,,,,,,,,
Cn1cncc1[C@@](N)(c1ccc(Cl)cc1)c1ccc2c(c1)c(-c1cccc(Cl)c1)cc(=O)n2C [tipifarnib],,3,0.52,2,1,0.67,0.7,no effect,0.58,67,13,0.26,0.44
